Target: 5-HT2A (Homo sapiens (Human), UniProt P28223)
Assay: Radioligand binding assay, [^3H]5-HT competition, 5-HT2A
Settings: not given

Sequence of 5-HT2A (P28223 whole entry): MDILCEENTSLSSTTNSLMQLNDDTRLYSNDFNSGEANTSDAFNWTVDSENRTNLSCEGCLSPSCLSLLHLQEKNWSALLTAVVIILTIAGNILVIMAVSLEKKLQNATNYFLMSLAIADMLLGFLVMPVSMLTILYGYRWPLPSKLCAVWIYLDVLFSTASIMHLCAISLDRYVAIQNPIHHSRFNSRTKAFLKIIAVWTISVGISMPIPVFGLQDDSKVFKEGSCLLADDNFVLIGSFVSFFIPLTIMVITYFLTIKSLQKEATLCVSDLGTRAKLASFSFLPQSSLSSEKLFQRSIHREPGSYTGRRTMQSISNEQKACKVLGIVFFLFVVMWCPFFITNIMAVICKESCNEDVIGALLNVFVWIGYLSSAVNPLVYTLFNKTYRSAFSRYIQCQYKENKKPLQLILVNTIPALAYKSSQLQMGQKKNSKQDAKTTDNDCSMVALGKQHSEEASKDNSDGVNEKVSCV

In the case of `COCCC(=O)Nc1ccc(OCCN2CCCC2)c(-c2c(C)ncnc2C)c1` [Compound 235, N-(3-(4,6-dimethylpyrimidin-5-yl)-4-(2-(pyrrolidin-1-yl)ethoxy)phenyl)-3-methoxypropanamide], the Ki is reported as 211 nM.

Same assay, conditions: [^3H]5-HT radioligand, membranes of HEK293 cells expressing recombinant 5-HT2A; Ki from IC50 by Cheng-Prusoff; read-out: 5-HT2A serotonin binding Ki value

Compared with `CCOC1CC1C(=O)Nc1ccc(OCCN2CCOCC2)c(-c2c(C)ncnc2C)c1` (stereo not shown) [Compound 401, N-(3-(4,6-dimethylpyrimidin-5-yl)-4-(2-morpholinoethoxy)phenyl)-2-ethoxycyclopropane-1-carboxamide], `Cc1ncnc(C)c1-c1cc(NC(=O)C2CC2)ccc1OCCN1CCOCC1` [Compound 390, N-[3-(4,6-dimethylpyrimidin-5-yl)-4-(2-morpholinoethoxy)phenyl]cyclopropanecarboxamide] is 5.9-fold lower in Ki: 30.9 nM for the first, 5.25 nM for the second. The second binds more tightly here.

First: Cc1ncncc1-c1cc(NC(=O)C2CC2)ccc1OCCN1CCOCC1 [Compound 391, N-(3-(4-methylpyrimidin-5-yl)-4-(2-morpholinoethoxy)phenyl)cyclopropanecarboxamide]
Second: Cc1ncnc(C)c1-c1cc(NC(=O)C2CC2)ccc1OCCN1CC(F)C1 [Compound 386, N-[3-(4,6-Dimethylpyrimidin-5-yl)-4-[2-(3-fluoroazetidin-1-yl)ethoxy]phenyl]cyclopropanecarboxamide]
The Ki of the first is 17-fold higher: 25.3 nM for the first, 1.48 nM for the second. The second binds more tightly here.

First: COCCN(C)CCOc1ccc(NC(=O)c2ccccc2)cc1-c1c(C)ncnc1C [Compound 376, N-(3-(4,6-dimethylpyrimidin-5-yl)-4-(2-((2-methoxyethyl) (methyl)amino)ethoxy)phenyl)benzamide]
Second: COCCN(C)CCOc1ccc(NC(=O)c2cccc(F)c2)cc1-c1c(C)ncnc1C [Compound 378, N-(3-(4,6-dimethylpyrimidin-5-yl)-4-(2-((2-methoxyethyl)(methyl)amino)ethoxy)phenyl)-3-fluorobenzamide]
The Ki of the first is 5.1-fold higher: 63.3 nM for the first, 12.5 nM for the second. The second binds more tightly here.

First: COc1cccc(C(=O)Nc2ccc(OC[C@H]3CCCCN3)c(-c3c(C)ncnc3C)c2)c1 [Compound 450, (R)—N-(3-(4,6-dimethylpyrimidin-5-yl)-4-(piperidin-2-ylmethoxy)phenyl)-3-methoxybenzamide]
Second: Cc1ncsc1C(=O)Nc1ccc(OC[C@H]2CCCCN2)c(-c2c(C)ncnc2C)c1 [Compound 425, (R)—N-(3-(4,6-dimethylpyrimidin-5-yl)-4-(piperidin-2-ylmethoxy)phenyl)-4-methylthiazole-5-carboxamide]
The Ki of the first is 43-fold lower: 1.03 nM for the first, 43.8 nM for the second. The first binds more tightly here.

Going from `Cc1ncnc(C)c1-c1cc(NC(=O)CN2CCn3cccc3C2)ccc1OCCN1CCCC1` [Compound 237, 2-(3,4-dihydro-1H-pyrrolo[1,2-a]pyrazin-2-yl)-N-[3-(4,6-dimethylpyrimidin-5-yl)-4-(2-pyrrolidin-1-ylethoxy)phenyl]acetamide] to `Cc1ncnc(C)c1-c1cc(NC(=O)Cc2ccn(C)n2)ccc1OCCN1CCCC1` [Compound 269, N-[3-(4,6-dimethylpyrimidin-5-yl)-4-(2-pyrrolidin-1-ylethoxy)phenyl]-2-(1-methylpyrazol-3-yl)acetamide], the Ki rises from 12.7 nM to 559 nM (44-fold).

Going from `Cc1cnoc1C(=O)Nc1ccc(O[C@@H]2CCCNC2)c(-c2c(C)ncnc2C)c1` [Compound 414, (R)—N-(3-(4,6-dimethylpyrimidin-5-yl)-4-(piperidin-3-yloxy)phenyl)-4-methylisoxazole-5-carboxamide] to `Cc1ncnc(C)c1-c1cc(NC(=O)c2ccnn2C)ccc1O[C@@H]1CCCNC1` [Compound 417, (R)—N-(3-(4,6-dimethylpyrimidin-5-yl)-4-(piperidin-3-yloxy)phenyl)-1-methyl-1H-pyrazole-5-carboxamide], the Ki falls from 91 nM to 40.3 nM (2.3-fold).

Going from `Cc1ncnc(C)c1-c1cc(NC(=O)CCc2ccc(F)cc2)ccc1OCCN1CCCC1` [Compound 248, N-[3-(4,6-dimethylpyrimidin-5-yl)-4-(2-pyrrolidin-1-ylethoxy)phenyl]-3-(4-fluorophenyl)propanamide] to `Cc1ncnc(C)c1-c1cc(NC(=O)Cc2ccc(F)cc2)ccc1OCCN1CCCC1` [Compound 254, N-(3-(4,6-dimethylpyrimidin-5-yl)-4-(2-(pyrrolidin-1-yl)ethoxy)phenyl)-2-(4-fluorophenyl)acetamide], the Ki rises from 0.845 nM to 1.3 nM (1.5-fold).

Going from `COc1cccc(CC(=O)Nc2ccc(OCCN3CCCC3)c(-c3c(C)ncnc3C)c2)c1` [Compound 274, N-(3-(4,6-dimethylpyrimidin-5-yl)-4-(2-(pyrrolidin-1-yl)ethoxy)phenyl)-2-(3-methoxyphenyl)acetamide] to `Cc1ncnc(C)c1-c1cc(NC(=O)Cc2cncc(F)c2)ccc1OCCN1CCCC1` [Compound 277, N-(3-(4,6-dimethylpyrimidin-5-yl)-4-(2-(pyrrolidin-1-yl)ethoxy)phenyl)-2-(5-fluoropyridin-3-yl)acetamide], the Ki rises from 3.92 nM to 33.4 nM (8.5-fold).

`Cc1ncnc(C)c1-c1cc(NC(=O)Cc2ccc(F)cn2)ccc1OCCN1CCC1` [Compound 315, N-(4-(2-(azetidin-1-yl)ethoxy)-3-(4,6-dimethylpyrimidin-5-yl)phenyl)-2-(5-fluoropyridin-2-yl)acetamide] and `Cc1ncnc(C)c1-c1cc(NC(=O)Cc2nccs2)ccc1OCCN1CCCC1` [Compound 294, N-(3-(4,6-dimethylpyrimidin-5-yl)-4-(2-(pyrrolidin-1-yl)ethoxy)phenyl)-2-(thiazol-2-yl)acetamide] are within 1.5-fold of each other in Ki: 12.6 nM for the first, 17.9 nM for the second.

Going from `CCCC(=O)Nc1ccc(OC2CNC2)c(-c2c(C)ncnc2C)c1` [Compound 397, N-(4-(azetidin-3-yloxy)-3-(4,6-dimethylpyrimidin-5-yl)phenyl) butyramide] to `Cc1ncnc(C)c1-c1cc(NC(=O)C2CC2)ccc1O[C@@H]1CCNC1` [Compound 403, N-[3-(4,6-dimethylpyrimidin-5-yl)-4-[(3R)-pyrrolidin-3-yl]oxy-phenyl]cyclopropanecarboxamide], the Ki rises from 8.59 nM to 24.9 nM (2.9-fold). The first binds more tightly here.

Going from `Cc1ncnc(C)c1-c1cc(NC(=O)c2ccccc2C#N)ccc1OCCN1CCC1` [Compound 324, N-(4-(2-(azetidin-1-yl)ethoxy)-3-(4,6-dimethylpyrimidin-5-yl)phenyl)-2-cyanobenzamide] to `COc1cncc(C(=O)Nc2ccc(OCCN3CCCC3)c(-c3c(C)ncnc3C)c2)c1` [Compound 208, N-(3-(4,6-dimethylpyrimidin-5-yl)-4-(2-(pyrrolidin-1-yl)ethoxy)phenyl)-5-methoxynicotinamide], the Ki falls from 59700 nM to 22.5 nM (2700-fold). The second binds more tightly here.

Going from `Cc1ncnc(C)c1-c1cc(NC(=O)C2CC2)ccc1OC[C@@H]1CCCN1` [Compound 407, N-[3-(4,6-dimethylpyrimidin-5-yl)-4-[[(2S)-pyrrolidin-2-yl]methoxy]phenyl]cyclopropanecarboxamide] to `Cc1ncnc(C)c1-c1cc(NC(=O)C2CC2)ccc1OC[C@@H]1CCN1` [Compound 406, (S)—N-(4-(azetidin-2-ylmethoxy)-3-(4,6-dimethylpyrimidin-5-yl)phenyl)cyclopropanecarboxamide], the Ki falls from 168 nM to 57 nM (2.9-fold). The second binds more tightly here.

Compared with `Cc1ncnc(C)c1-c1cc(NC(=O)C2(F)CC2)ccc1OCCN1C[C@@H]2C[C@H]1CO2` [Compound 382, N-(4-(2-((1S,4S)-2-oxa-5-azabicyclo[2.2.1]heptan-5-yl)ethoxy)-3-(4,6-dimethylpyrimidin-5-yl)phenyl)-1-fluorocyclopropane-1-carboxamide], `Cc1ncnc(C)c1-c1cc(NC(=O)C2(F)CC2)ccc1O[C@@H]1CCCNC1` [Compound 452, (R)—N-(3-(4,6-dimethylpyrimidin-5-yl)-4-(piperidin-3-yloxy)phenyl)-1-fluorocyclopropane-1-carboxamide] is 1.7-fold higher in Ki: 8.81 nM for the first, 15 nM for the second.

`Cc1ncnc(C)c1-c1cc(NC(=O)[C@H]2C[C@@H](F)C2)ccc1OCCN1CCCC1` [Compound 302, (1s,3s)-N-(3-(4,6-dimethylpyrimidin-5-yl)-4-(2-(pyrrolidin-1-yl)ethoxy)phenyl)-3-fluorocyclobutane-1-carboxamide] and `Cc1ncnc(C)c1-c1cc(NC(=O)C2CC(F)(F)C2)ccc1OCCN1CCCC1` [Compound 296, N-(3-(4,6-dimethylpyrimidin-5-yl)-4-(2-(pyrrolidin-1-yl)ethoxy)phenyl)-3,3-difluorocyclobutane-1-carboxamide] are within 1.5-fold of each other in Ki: 3.18 nM for the first, 4.49 nM for the second.

Going from `Cc1ncnc(C)c1-c1cc(NC(=O)C2CC2)ccc1OCCN1CCC2(CCC(=O)O2)CC1` [Compound 349, N-(3-(4,6-dimethylpyrimidin-5-yl)-4-(2-(2-oxo-1-oxa-8-azaspiro[4.5]decan-8-yl)ethoxy)phenyl)cyclopropanecarboxamide] to `CCOC1(C(=O)Nc2ccc(OCCN3CCCC3)c(-c3c(C)ncnc3C)c2)CC1` [Compound 285, N-[3-(4,6-dimethylpyrimidin-5-yl)-4-(2-pyrrolidin-1-ylethoxy)phenyl]-1-ethoxy-cyclopropanecarboxamide], the Ki rises from 12.6 nM to 33.4 nM (2.7-fold). The first binds more tightly here.

Compared with `Cc1ncnc(C)c1-c1cc(NC(=O)C2CC2)ccc1OCCN(C)CCF` [Compound 360, N-(3-(4,6-dimethylpyrimidin-5-yl)-4-(2-((2-fluoroethyl)(methyl)amino)ethoxy)phenyl)cyclopropanecarboxamide], `COC(C)(C)C(=O)Nc1ccc(OCCN2CCCC2)c(-c2c(C)ncnc2C)c1` [Compound 284, N-[3-(4,6-dimethylpyrimidin-5-yl)-4-(2-pyrrolidin-1-ylethoxy)phenyl]-2-methoxy-2-methyl-propanamide] is 8-fold higher in Ki: 11 nM for the first, 87.5 nM for the second.

`Cc1ncnc(C)c1-c1cc(NC(=O)CCc2cocn2)ccc1OCCN1CCCC1` [Compound 258, N-[3-(4,6-dimethylpyrimidin-5-yl)-4-(2-pyrrolidin-1-ylethoxy)phenyl]-3-oxazol-4-yl-propanamide] and `Cc1ncnc(C)c1-c1cc(NC(=O)c2ccnn2C)ccc1OCCN1CCOCC1` [Compound 394, N-(3-(4,6-dimethylpyrimidin-5-yl)-4-(2-morpholinoethoxy)phenyl)-1-methyl-1H-pyrazole-5-carboxamide] are within 1.5-fold of each other in Ki: 10.8 nM for the first, 13 nM for the second.

Same assay, conditions: read-out: 5-HT2A serotonin binding Ki value

Going from `Cc1ncnc(C)c1-c1cc(NC(=O)C2CC2)ccc1OCCN1CCC(CC(=O)O)C1` (stereo not shown) [Compound 338, 2-[1-[2-[4-(cyclopropanecarbonylamino)-2-(4,6-dimethylpyrimidin-5-yl)phenoxy]ethyl]pyrrolidin-3-yl]acetic acid] to `Cc1nscc1C(=O)Nc1ccc(OCCN2CCCC2)c(-c2c(C)ncnc2C)c1` [Compound 223, N-(3-(4,6-dimethylpyrimidin-5-yl)-4-(2-(pyrrolidin-1-yl)ethoxy)phenyl)-3-methylisothiazole-4-carboxamide], the Ki falls from 485 nM to 10.5 nM (46-fold).

From US20250270172A1, “Pyrimidine Derivatives As Modulators of the 5-HT2A Serotonin Receptor Useful For The Treatment of Disorders Related Thereto” (Arena Pharmaceuticals, Inc., priority 2020, published 2025)
